These are literature values, as cited in patent US20120164100A1, “TEMPERATURE SENSITIVE HYDROGEL AND BLOCK COPOLYMERS” (priority 2010, published 2012).

In the case of `CCCCC[C@H](O)/C=C/[C@H]1[C@H](O)CC(=O)[C@@H]1C/C=C\CCCC(=O)O` [PGE2, Prostaglandin E2], the solubility entry (pH above 6, Critical Micelle Concentration) was “about 5 mg/mL”. In addition, the half life result (physiological condition) was “very short”.
